In general, IC50 refers to the concentration that inhibits the measured activity by half. A low value points to greater potency in that assay.

Assay [1] deals with T1, DNA polymerase lambda (Homo sapiens, UniProt Q9UGP5).
T1 sequence (Q9UGP5 whole entry): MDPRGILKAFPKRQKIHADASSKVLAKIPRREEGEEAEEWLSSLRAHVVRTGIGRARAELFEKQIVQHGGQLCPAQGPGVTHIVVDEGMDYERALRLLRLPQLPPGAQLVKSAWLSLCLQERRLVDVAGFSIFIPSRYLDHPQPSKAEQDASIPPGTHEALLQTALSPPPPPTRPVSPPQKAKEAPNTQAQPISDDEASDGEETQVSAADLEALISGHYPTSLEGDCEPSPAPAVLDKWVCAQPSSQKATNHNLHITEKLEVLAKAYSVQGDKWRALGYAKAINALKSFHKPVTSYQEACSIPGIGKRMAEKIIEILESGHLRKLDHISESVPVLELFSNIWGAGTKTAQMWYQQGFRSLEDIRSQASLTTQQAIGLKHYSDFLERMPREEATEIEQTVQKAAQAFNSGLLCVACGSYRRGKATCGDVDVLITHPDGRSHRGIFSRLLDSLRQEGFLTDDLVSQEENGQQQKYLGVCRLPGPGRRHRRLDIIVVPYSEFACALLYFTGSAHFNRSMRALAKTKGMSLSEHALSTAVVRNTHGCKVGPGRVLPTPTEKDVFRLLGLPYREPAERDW
Put plainly: DNA Pol λ PEX Assay. Conditions: pH 7.5. The protocol:
Pol λ reactions were made in a final volume of 20uL containing 50mM Tris-HCl pH 7.5, 1.5mM MgCl2, 5% (v/v) glycerol, 1mM DTT, 250nM purified recombinant pol λ, 150nM radioactive-labled primer F20H, 225nM template F33A, 0.1mg/mL BSA, 1uL compound solution with variable concentrations in DMSO (1uL DMSO for the solvent control). 5uL dNTP solution (15uM final) was added to initiate the reactions and positive controls. Reactions and controls were incubated for 30 min at 37 degrees Celsius and subsequently quenched using 45uL PAGE loading solution (80% (v/v) formamide, 20mM EDTA, 0.05% (w/v) bromophenol blue, 0.05% (w/v) xylene cyanol) per well. The reaction mixture was denatured for 5 min at 95 degrees Celsius and analyzed by 12% PAGE containing 8M urea.

Assay [2] has as its target DNA polymerase beta (Homo sapiens, UniProt P06746). Briefly: DNA Pol β PEX Assay. The conditions noted are these: pH 7.9. As to the method: Pol β reactions were made in a final volume of 20uL containing 50mM Tris-HCl pH 7.9, 20mM KCl, 5% (v/v) glycerol, 1mM DTT, 2mM MnCl2, 250nM purified recombinant pol β, 150nM radioactive-labeled primer F20H, 225nM template F33A, 0.1mg/mL BSA, 1uL compound solution with various concentrations in DMSO (1uL DMSO for the solvent control). 5uL dNTP (15uM final) was added to initiate the reactions and positive controls. Reactions and controls were incubated for 30 min at 37 degrees Celsius and subsequently quenched using 45uL PAGE loading solution (80% (v/v) formamide, 20mM EDTA, 0.05% (w/v) bromophenol blue, 0.05% (w/v) xylene cyanol) per well. The reaction mixture was denatured for 5 min at 95 degrees Celsius and analyzed by 12% PAGE containing 8M urea.

For `Cc1ccccc1Sc1ccc(C=C2SC(S)=NC2=O)cc1` [23 (Z)-2-Thioxo-5-(4-(o-tolylthio)benzylidene)thiazolidin-4-one 28], the results for the IC50 in assay [1] and in assay [2] were below 10 µM and 50 µM, respectively.

For the compound `Cc1ccccc1Sc1ccc(C=C2SC(S)=NC2=O)cc1C(F)(F)F` [(Z)-2-Thioxo-5-(4-(o-tolylthio)-3-(trifluoromethyl)benzylidene)thiazolidin-4-one 30], the IC50 in assay [1] is below 10 µM; in assay [2], below 50 µM.

As for `Cc1ccc(Sc2ccc(C=C3SC(S)=NC3=O)cc2C(F)(F)F)cc1` [(Z)-2-Thioxo-5-(4-(p-tolylthio)-3-(trifluoromethyl)benzylidene)thiazolidin-4-one 15], the IC50 was below 10 µM in assay [1] and 28.1 µM in assay [2].

For the compound `Cc1ccc(Sc2ccc(C=C3SC(S)=NC3=O)cc2)cc1` [(Z)-2-Thioxo-5-(4-(p-tolylthio)benzylidene)thiazolidin-4-one 11], the IC50 in assay [1] is below 10 µM; in assay [2], below 50 µM.

Consider `C=C(c1ccc(Sc2ccc(C)cc2)c([N+](=O)[O-])c1)c1sc(S)nc1O` [(Z)-5-(1-(3-Nitro-4-(p-tolylthio)phenyl)ethylidene)-2-thioxothiazolidin-4-one 8], for which the values for the IC50 in assay [1] and in assay [2] were below 10 µM and below 50 µM, respectively.

Take `Cc1ccc(Sc2ccc(C=C3SC(S)=NC3=O)c(Sc3ccc(C)cc3)c2)cc1` [(Z)-5-(2,4-Bis(p-tolylthio)benzylidene)-2-thioxothiazolidin-4-one 31]: the results for the IC50 in assay [1] and in assay [2] were 4 µM and below 50 µM, respectively.

`Cc1ccc(Sc2ccc(C=C3SC(S)=NC3=O)cc2Br)cc1F` [(Z)-5-(3-Bromo-4-((3-fluoro-4-methylphenyl)thio)benzylidene)-2-thioxothiazolidin-4-one 27]: the IC50 is 4 µM in assay [1] and above 50 µM in assay [2].

`Cc1ccc(Sc2ccc(C=C3SC(S)=NC3=O)cc2Br)cc1` [(Z)-5-(3-Bromo-4-(p-tolylthio)benzylidene)-2-thioxothiazolidin-4-one 14]: the figures for the IC50 in assay [1] and in assay [2] were below 10 µM and above 50 µM, respectively.

Take `Cc1ccc(Sc2ccc(C=C3SC(S)=NC3=O)cc2Cl)cc1` [(Z)-5-(3-Chloro-4-(p-tolylthio)benzylidene)-2-thioxothiazolidin-4-one 13]: the values for the IC50 in assay [1] and in assay [2] were 5.7 µM and above 50 µM, respectively.

`Cc1ccccc1Sc1ccc(C=C2SC(S)=NC2=O)cc1F` [(Z)-5-(3-Fluoro-4-(o-tolylthio)benzylidene)-2-thioxothiazolidin-4-one 29]: the IC50 in assay [1] was below 10 µM; in assay [2], 50 µM.

For `Cc1ccc(Sc2ccc(C=C3SC(S)=NC3=O)cc2F)cc1` [(Z)-5-(3-Fluoro-4-(p-tolylthio)benzylidene)-2-thioxothiazolidin-4-one 12], the IC50 is below 10 µM in assay [1] and 38.7 µM in assay [2].

In the case of `O=C1N=C(S)SC1=Cc1ccc(Sc2c(F)c(F)c(C(F)(F)F)c(F)c2F)c([N+](=O)[O-])c1` [(Z)-5-(3-Nitro-4-((2,3,5,6-tetrafluoro-4-(trifluoromethyl)phenyl)thio)benzylidene)-2-thioxothiazolidin-4-one 21], the results for the IC50 in assay [1] and in assay [2] were below 10 µM and above 50 µM, respectively.

For `O=C1N=C(S)SC1=Cc1ccc(Sc2ccc(OC(F)(F)F)cc2)c([N+](=O)[O-])c1` [(Z)-5-(3-Nitro-4-((4-(trifluoromethoxy)phenyl)thio)benzylidene)-2-thioxothiazolidin-4-one 19], the figures for the IC50 in assay [1] and in assay [2] were below 20 µM and above 50 µM, respectively.

`O=C1N=C(S)SC1=Cc1ccc(Sc2ccc(C(F)(F)F)cc2)c([N+](=O)[O-])c1` [(Z)-5-(3-Nitro-4-((4-(trifluoromethyl)phenyl)thio)benzylidene)-2-thioxothiazolidin-4-one 18]: the IC50 is below 10 µM in assay [1] and above 50 µM in assay [2].

`Cc1cccc(Sc2ccc(C=C3SC(S)=NC3=O)cc2[N+](=O)[O-])c1` [(Z)-5-(3-Nitro-4-(m-tolylthio)benzylidene)-2-thioxothiazolidin-4-one 22]: the results for the IC50 in assay [1] and in assay [2] were 6 µM and 29.8 µM, respectively.

In the case of `Cc1ccccc1Sc1ccc(C=C2SC(S)=NC2=O)cc1[N+](=O)[O-]` [(Z)-5-(3-Nitro-4-(o-tolylthio)benzylidene)-2-thioxothiazolidin-4-one 23], the IC50 came out at 3.9 µM in assay [1] and 18.2 µM in assay [2].

In the case of `Cc1ccc(Sc2ccc(C=C3SC(O)=NC3=O)cc2[N+](=O)[O-])cc1` [(Z)-5-(3-Nitro-4-(p-tolylthio)benzylidene)thiazolidine-2,4-dione 3], the IC50 was below 10 µM in assay [1] and above 50 µM in assay [2].

For `Cc1ccc(S(=O)(=O)c2ccc(C=C3SC(S)=NC3=O)cc2[N+](=O)[O-])cc1` [(Z)-5-(3-Nitro-4-tosylbenzylidene)-2-thioxothiazolidin-4-one 10], the IC50 in assay [1] was below 20 µM.

For `Cc1ccc(Sc2ccc(C=C3SC(S)=NC3=O)cc2[N+](=O)[O-])cc1F` [(Z)-5-(4-((3-Fluoro-4-methylphenyl)thio)-3-nitrobenzylidene)-2-thioxothiazolidin-4-one 20], the figures for the IC50 in assay [1] and in assay [2] were below 10 µM and above 50 µM, respectively.

`CCc1ccc(Sc2ccc(C=C3SC(S)=NC3=O)cc2[N+](=O)[O-])cc1` [(Z)-5-(4-((4-Ethylphenyl)thio)-3-nitrobenzylidene)-2-thioxothiazolidin-4-one 17]: the IC50 in assay [1] is below 10 µM; in assay [2], below 50 µM.

`O=C1N=C(S)SC1=Cc1ccc(SC2CCCCC2)c([N+](=O)[O-])c1` [(Z)-5-(4-(Cyclohexylthio)-3-nitrobenzylidene)-2-thioxothiazolidin-4-one 2]: the IC50 in assay [1] is below 10 µM; in assay [2], below 50 µM.

As for `O=C1N=C(S)SC1=Cc1ccc(SC2CCCC2)c([N+](=O)[O-])c1` [(Z)-5-(4-(Cyclopentylthio)-3-nitrobenzylidene)-2-thioxothiazolidin-4-one 26], the IC50 in assay [1] is below 20 µM; in assay [2], above 50 µM.

As to `O=C1N=C(S)SC1=Cc1ccc(Sc2ccc3ccccc3c2)c([N+](=O)[O-])c1` [(Z)-5-(4-(Naphthalen-2-ylthio)-3-nitrobenzylidene)-2-thioxothiazolidin-4-one 25], the figures for the IC50 in assay [1] and in assay [2] were below 10 µM and above 50 µM, respectively.

`Cc1ccc(Sc2sc(C=C3SC(S)=NC3=O)cc2Br)cc1` [(Z)-5-((4-Bromo-5-(p-tolylthio)thiophen-2-yl)methylene)-2-thioxothiazolidin-4-one 32]: the IC50 in assay [1] is below 10 µM; in assay [2] it was below 50 µM.

For the compound `Cc1ccc(Sc2ccc(C=C3SC(S)=NC3=O)cc2C#N)cc1` [(Z)-5-((4-Oxo-2-thioxothiazolidin-5-ylidene)methyl)-2-(ptolylthio) benzonitrile 16], the IC50 in assay [1] was below 10 µM.

Consider `Cc1ccc(Sc2ccc(C=C3SC(S)=NC3=O)cc2[N+](=O)[O-])cc1` [DNA polymerase inhibitor 1], for which the values for the IC50 in assay [1] and in assay [2] were 5.9 µM and 64.4 µM, respectively.

Values taken from BindingDB's records for doi:10.1021/cb4007562 (University of Konstanz, 2014).
